Earlier results, collected in patent publication US20050131071A1, “Orodispersible pharmaceutical composition of agomelatine” (priority 2003, published 2005).

Settings: humans; oral route in relation to the parenteral route

Compound: COc1ccc2cccc(CCNC(C)=O)c2c1 [agomelatine, N-[2-(7-methoxy-1-naphthyl)ethyl]acetamide]
- bioavailability by the oral route: very low
